Experiments:
[1] = tested on: target genes of PPARα (CD36, CPT-1, PDK4, ACO); assay: Expression of target genes of PPARα in SK-HEP-1 liver cells (RT-PCR); assay type: cell-based; details: SK-HEP-1 cells, 1, 5, 10 and 25 μM, 24 hours, vs control
Protocol: SK-HEP-1 liver cells ([…]) cultured in a DMEM medium containing 10% FBS were pipetted into a multi-well plate in a cell count of 1×10^6 cells per well, and then further cultured for 5 hours. Different concentrations (1, 5, 10 and 25 μM) of macelignan were added to the medium of the cultured cells, and then the cells were left for 24 hours. The cells were collected and the total RNA was isolated by using TRIZOL (Invitrogen, USA). The total RNA isolated as described above was determined and cDNA was synthesized by using reverse transcriptase at 42° C. for 20 minutes with same amounts of RNA. The cDNA was subjected to RT-PCR by repeating 30 cycles of 95° C./1 minute, 56° C./30 seconds and 72° C./2 minutes with the following primers and Taq polymerase: primers for CD36 amplification (SEQ ID NO: 5(CGGCGATGAGAAAGCAGAA) and SEQ ID NO: 6(CAACCAGGCCCAGGAGC)), primers for CPT-1 amplification (SEQ ID NO: 7([…]) and SEQ ID NO: 8([…])), primers for PDK4 amplification (SEQ ID NO: 9([…]) and SEQ ID NO: 10(ATAAGTTAAGTGGGCCTGG)), and primers for ACO amplification (SEQ ID NO: 11([…]) and SEQ ID NO: 12([…])).

[2] = tested on: target genes of PPARγ (LPL, PEPCK); assay: Expression of target genes of PPARγ in 3T3-L1 pre-adipocytes (RT-PCR); assay type: cell-based, mouse; details: 3T3-L1 cells, 24 hours, then MDI medium two days, vs control
Protocol: 3T3-L1 mouse pre-adipocytes (ATCC CL-173) cultured in a DMEM medium containing 10% FBS were pipetted into a multi-well plate in a cell count of 1×10^6 cells per well, and then further cultured for 5 hours. To the medium of the cultured cells, 10 μM of macelignan was added and then left for 24 hours. Adipocyte differentiation was induced by substituting the medium of the cultured cells with MDI (0.5 mM 3-isobutyl-1-methylxanthine, 0.5 uM dexamethasone, 10 ug/ml insulin) medium (Am. J. Physiol. Cell Physiol., 280: C807-C813, 2001). Cells were collected two days after the substitution of MDI medium, and the total RNA was isolated by using TRIZOL (Invitrogen, USA). The total RNA isolated as described above was determined, and cDNA was synthesized by using reverse transcriptase at 42° C. for 20 minutes with same amount of RNA. The cDNA was subjected to RT-PCR by repeating 30 cycles of 95° C./1 minute, 56° C./30 seconds and 72° C./2 minutes with the following primers and Taq polymerase: primers for LPL amplification (SEQ ID NO: 13([…]) and SEQ ID NO: 14([…])), and primers for PEPCK amplification (SEQ ID NO: 15(CAGGCGGCTGAA GAAGTATGA) and SEQ ID NO: 16([…])).

[3] = tested on: obesity/diabetes mice (db/db mice); assay: Effect upon fatty liver in obesity/diabetes mouse model; assay type: in vivo; details: 25 mg/kg oral, 14 days
Protocol: To investigate effects of macelignan upon the prevention and treatment of fatty liver, seven mice of 10 week-aged obesity/diabetes mice (db/db mice) were used per test group. To the test groups, macelignan suspended in 0.25% carboxymethyl cellulose was orally administered in an administration dose of 5 mg/kg (body weight), 10 mg/kg (body weight) and 25 mg/kg (body weight), once per day at a predetermined time, for 14 days in all. As a control, 0.25% carboxymethyl cellulose was orally administered alone to normal mice in the same dose as administered to the test group. As another control, 0.25% carboxymethyl cellulose was orally administered alone to obesity/diabetes mice in the same dose as administered to the test group. As still another control, 10 mg/kg (body weight) of troglitazone was orally administered. Fourteen days after the oral administration, the liver tissue was isolated and crushed to extract the total lipid and fat contents, and then the triglyceride content accumulated in the liver tissue was measured.

[4] = tested on: target genes of PPARα (CD36, ACO, CPT-1); assay: Expression of target genes of PPARα in liver tissue of obesity/diabetes mouse model; assay type: in vivo; details: 5, 10 and 25 mg/kg oral, 14 days, db/db mice, p<0.05 vs control
Protocol: Liver tissue was removed from the test groups and the controls treated by oral administration in Examples 5˜8. The liver tissue was homogenized in liquid nitrogen and the total RNA was isolated from the tissues by using TRIZOL (Invitrogen, USA). The total RNA isolated as described above was determined and cDNA was synthesized by using reverse transcriptase at 42° C. for 20 minutes with same amount of RNA. The cDNA was subjected to RT-PCR by repeating 30 cycles of 95° C./1 minute, 56° C./30 seconds and 72° C./2 minutes with the following primers and Taq polymerase: primers for CD36 amplification (SEQ ID NO: 5 and SEQ ID NO: 6), primers for ACO amplification (SEQ ID NO: 11 and SEQ ID NO: 12), and primers for CPT-1 amplification (SEQ ID NO: 7 and SEQ ID NO: 8). Expression of the genes was determined by real-time PCR.

**Q.** Which results are given for `COc1cc(C[C@H](C)[C@H](C)Cc2ccc3c(c2)OCO3)ccc1O` (single isomer, unassigned) [macelignan]?
**A.** mRNA expression of CD36, CPT-1, PDK-4 and ACO [1]: significantly increased; mRNA expression of LPL and PEPCK [2]: significantly increased; triglyceride content in the liver tissue [3]: 6.30 ± 11.59 mg/g; mRNA expression of CD36, ACO and CPT-1 in liver tissue [4]: significantly increased

Reference: patent publication US7902254B1, “Method for treating conditions mediated by PPAR using macelignan” (Newtree Co., Ltd., priority 2005, dated 2011)
